TGI data for ten molecules are collected here from PubChem BioAssay (NCI).

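Exposure lasted 48 hours, with cells grown in 96-well plates and compounds tested at five concentrations. At the TGI there is no net growth.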 Some results are limits rather than exact numbers.

Among the test systems are UO-31 renal; SK-MEL-5 melanoma; OVCAR-4 ovarian; SF-295 CNS; HCT-116 colon; BT-549 breast; A498 renal; HCT-15 colon; HL-60(TB) leukemia; NCI-H226 lung.
Holding throughout (test): NCI tumour cell line growth inhibition, 48 h

For `Cn1c2ccccc2n2c(=O)c(-c3ccc(O)cc3)nnc12`, the TGI in the assay with UO-31 renal, in the assay with SK-MEL-5 melanoma, in the assay with OVCAR-4 ovarian, in the assay on SF-295 CNS, in the assay on HCT-116 colon and in the assay on BT-549 breast was above 100 µM each time. Moreover, the TGI in the assay on A498 renal, in the assay with HCT-15 colon, in the assay on HL-60(TB) leukemia and in the assay on NCI-H226 lung was above 100 µM in each case.
For `COC(=O)c1c(C)nc(C)c(N=O)c1-c1ccccc1C(F)(F)F`, the TGI in the assay on UO-31 renal was 37.1 µM; with SK-MEL-5 melanoma, 89.4 µM; in the assay on OVCAR-4 ovarian, 31.8 µM; in the assay with SF-295 CNS, above 100 µM; in the assay on HCT-116 colon it was 31.8 µM; in the assay with BT-549 breast, 33.6 µM. The TGI with A498 renal is above 100 µM; in the assay with HCT-15 colon it was 45.8 µM; with HL-60(TB) leukemia, above 100 µM; in the assay with NCI-H226 lung, 43.2 µM.
On to `CCOc1ccc(N=NC2C(=O)N(C(=O)CC(=O)Nc3ccc(Cl)cc3)N=C2C)cc1` (stereo not drawn), for which the TGI in the assay with UO-31 renal, with SK-MEL-5 melanoma, with OVCAR-4 ovarian, in the assay on SF-295 CNS, in the assay on HCT-116 colon and with BT-549 breast was above 100 µM throughout. For the same molecule, the TGI with A498 renal, with HL-60(TB) leukemia and in the assay on NCI-H226 lung was above 100 µM each time.
As for `C[N+](C)(C)CCCCCc1c2nc(c(CCCCC[N+](C)(C)C)c3ccc([nH]3)c(CCCCC[N+](C)(C)C)c3ccc([nH]3)c(CCCCC[N+](C)(C)C)c3nc1C=C3)C=C2`, the TGI with UO-31 renal, in the assay on SK-MEL-5 melanoma, in the assay on OVCAR-4 ovarian, with SF-295 CNS, in the assay with HCT-116 colon and with BT-549 breast was above 100 µM throughout. Also, the TGI with A498 renal, in the assay on HCT-15 colon, in the assay with HL-60(TB) leukemia and in the assay on NCI-H226 lung was above 100 µM in each case.
For `CCc1nnc2sc(-c3ccc(-c4ccc(Cl)cc4Cl)o3)nn12`, the TGI in the assay on UO-31 renal, with SK-MEL-5 melanoma, in the assay on OVCAR-4 ovarian, in the assay on SF-295 CNS, in the assay with HCT-116 colon and with BT-549 breast was above 100 µM in each case. Also, the TGI in the assay on A498 renal, in the assay with HCT-15 colon, with HL-60(TB) leukemia and in the assay with NCI-H226 lung was above 100 µM throughout.
Regarding `CCOC(=O)c1c(OCC)[nH]c(=O)c(C(c2ccc(F)cc2)c2c(O)c(C(=O)OCC)c(OCC)[nH]c2=O)c1O`, the TGI with UO-31 renal is 25.7 µM; in the assay with SK-MEL-5 melanoma it was 25.9 µM; in the assay on OVCAR-4 ovarian it was 48.3 µM; in the assay with SF-295 CNS, 49.8 µM; in the assay with HCT-116 colon, above 100 µM; in the assay on BT-549 breast, 23.6 µM. Also, the TGI in the assay on A498 renal was determined as 26.2 µM; with HCT-15 colon, 40.4 µM; in the assay on HL-60(TB) leukemia, 54.3 µM; in the assay with NCI-H226 lung it was 26.1 µM.
As to `COc1ccc(N(C(=O)OC(C)(C)C)[C@@H]2C(C)=C[C@H]([S@@](=O)c3ccc(C)cc3)[C@@H]3C(=O)N(C)C(=O)[C@@H]32)cc1`, the TGI in the assay on UO-31 renal came to 30.1 µM; in the assay on SK-MEL-5 melanoma, 43.7 µM; in the assay on OVCAR-4 ovarian it was 34.2 µM; in the assay with SF-295 CNS, 35.9 µM; with HCT-116 colon, 35.9 µM; in the assay with BT-549 breast, 33.9 µM. Moreover, the TGI in the assay on A498 renal was 29.3 µM; with HCT-15 colon, above 100 µM; with HL-60(TB) leukemia, 47.5 µM; with NCI-H226 lung, 34.6 µM.
Turning to `COc1ccc(OC)c2c1C[C@@H]1C(C#N)N3[C@H](Cc4c(OC)ccc(OC)c4[C@@H]3C)C(=O)N1[C@H]2C` (stereo partly drawn), the TGI in the assay on UO-31 renal worked out at 4.54 µM; in the assay with SK-MEL-5 melanoma it was 3.25 µM; with OVCAR-4 ovarian it was 16.4 µM; in the assay with SF-295 CNS it was 35.7 µM; in the assay on HCT-116 colon, 11.8 µM; in the assay with BT-549 breast, 4.09 µM. Further, the TGI with A498 renal worked out at 42.1 µM; with HCT-15 colon it was 11.2 µM; in the assay on HL-60(TB) leukemia it was 6.18 µM; in the assay on NCI-H226 lung, 40.9 µM.
For the molecule `Cc1ccc(Nc2ncnc3sc(SCc4ccccc4)nc23)cc1`, the TGI in the assay on UO-31 renal, with SK-MEL-5 melanoma, with OVCAR-4 ovarian, with SF-295 CNS, in the assay on HCT-116 colon and in the assay on BT-549 breast was above 100 µM throughout. The TGI with A498 renal, in the assay on HCT-15 colon, in the assay with HL-60(TB) leukemia and with NCI-H226 lung was above 100 µM each time.
For `CC1(C)OC1CC/C(=C/CBr)CBr` (stereo not drawn), the TGI came out at 28.9 µM with UO-31 renal; 27.5 µM in the assay on SK-MEL-5 melanoma; 32.1 µM in the assay with OVCAR-4 ovarian; 27.6 µM in the assay with SF-295 CNS; 33 µM in the assay on HCT-116 colon; 30.4 µM in the assay on BT-549 breast. Also, the results for the TGI with A498 renal, in the assay on HL-60(TB) leukemia and in the assay on NCI-H226 lung were 47.9 µM, 23.9 µM and 48.4 µM, respectively.
